Experimental data: US8834929B2, “Drying of drug-containing particles” (Bend Research, Inc., priority 2006, dated 2014)
Values after ≈ are worked out from the molar mass of the structure shown.

How the values were obtained:
[1] = In vitro dissolution test (microcentrifuge, PBS pH 6.5); format: physicochemical; conditions: PBS pH 6.5, 290 mOsm/kg, 37° C., 3000 μg/mL Drug 3 if all dissolved; Dispersion 4 before secondary drying; crystalline drug alone
Experimental: A sample of Dispersion 4 was evaluated before and after secondary drying in an in vitro dissolution test to determine the effect of drying on concentration enhancement. For this test, a sufficient amount of Dispersion 4 was added to microcentrifuge test tubes so that the concentration of Drug 3 would have been 3000 μg/mL had all of the drug had dissolved. The test was performed in duplicate. The tubes were placed in a 37° C. temperature-controlled chamber, and 1.8 mL PBS at pH 6.5 and 290 mOsm/kg was added to each tube. The samples were mixed using a vortex mixer for about 60 seconds. The samples were centrifuged at 13,000 G at 37° C. for 1 minute. The resulting supernatant solution was then sampled and diluted 1:6 (by volume) with methanol and then analyzed by high performance liquid chromatography (HPLC). The contents of each tube were mixed on the vortex mixer and allowed to stand undisturbed at 37° C. until the next sample was taken. Samples were collected at 4, 10, 20, 40, 90, and 1200 minutes. For comparison, crystalline Drug 3 alone was tested using the same procedures.
The concentrations of drug obtained in these samples were used to determine the maximum concentration of drug (MDC90) and the area under the concentration-versus-time curve (AUC90) during the initial 90 minutes.

[2] = Aqueous solubility of the drug; format: physicochemical

| AUC90 (area under the concentration-versus-time curve during the initial 90 minutes) [1] | MDC90 (maximum concentration of drug during the initial 90 minutes) [1] | solubility [2] | SMILES |
| --- | --- | --- | --- |
| 9200 µg·min/mL | 112 µg/mL | ~1600 µg/mL (≈ 3130 µM) | C=CCNC(=O)[C@H]1N(C(=O)[C@@H](O)[C@H](Cc2ccccc2)NC(=O)c2cccc(O)c2C)CSC1(C)C [Drug 3, (4R)—N-allyl-3-{(2S,3S)-2-hydroxy-3-[(3-hydroxy-2-methylbenzoyl)amino]-4-phenylbutanoyl}-5,5-dimethyl-1,3-thiazolidine-4-carboxamide] |
| – | – | < 0.1 µg/mL | CCOC(=O)N1c2ccc(C(F)(F)F)cc2[C@@H](N(Cc2cc(C(F)(F)F)cc(C(F)(F)F)c2)C(=O)OC)C[C@H]1CC [Drug 2, torcetrapib, reference compound] |
| – | – | ~80 µg/mL (≈ 175 µM) | O=C(N[C@@H](Cc1ccccc1)[C@H](O)C(=O)N1C[C@@H](O)[C@@H](O)C1)c1cc2cc(Cl)ccc2[nH]1 [Drug 1, 5-chloro-1H-indole-2-carboxylic acid [(1S)-benzyl-(2R)-hydroxy-3-((3R,4S)-dihydroxy-pyrrolidin-1-yl-)-3-oxypropyl]amide] |
